Measurements: patent US20250224398A1, “GASDERMIN E EXPRESSION IN HUMAN T CELLS AS A MARKER FOR PROINFLAMMATORY T CELL FUNCTIONS” (LEIBNIZ-INSTITUT FÜR NATURSTOFF-FORSCHUNG UND …, priority 2022, published 2025)
“Also recorded” adds a separate entry of the source. Residues, ends and D or L forms follow the SMILES beside them. *: point of attachment. Cbz = O=C(OCc1ccccc1)*; CH2F = FC*

What was measured:
SGC-7901 and MKN-45 = details: cited from earlier work
human Th17 cells [1] = assay: Cytokine secretion by stimulated Th17 cells into culture supernatants (ELISA / Luminex); assay type: cell-based; details: for IL-1α secretion by Th17 cells: Th17 cells stimulated with anti-CD3 and anti-CD28 mAbs for 5 days, ELISA of supernatants
Method: (§1) Human T cells were cultured in RPMI 1640 medium supplemented with 1% (v/v) GlutaMAX™ Supplement, 1% (v/v) MEM nonessential Amino Acids Solution (100×), 1% (v/v) sodium pyruvate (100 mM), 0.1% 2-Mercaptoethanol (50 mM) (all from Gibco™), 1% (v/v) Penicillin-Streptomycin (Sigma-Aldrich), penicillin (500 U/ml), streptomycin (500 μg/ml), and 10% (v/v) fetal calf serum (Sigma-Aldrich). In some experiments, T cell culture was performed in the presence of recombinant cytokines (IL-6, 50 ng/ml; IL-12, 10 ng/ml; IL-4, 10 ng/ml; TGF-b, 10 ng/ml; IL-1b, 20 ng/ml; all from R&D Systems) or neutralizing antibodies (anti-IL-1a, […], BD Biosciences). […] T cells were stimulated with plate-bound anti-CD3 (2 μg/ml, clone TR66) and anti-CD28 mAbs (2 μg/ml, clone CD28.2; both from BD Biosciences) for 48 h before transfer into uncoated wells for another 3 days for a total culture period of 5 days, unless indicated otherwise in the legends. T cell clones were generated in non-polarizing conditions as described previously following single-cell deposition with fluorescence-activated cell sorting or by limiting dilution cloning (Gross, O. et al. Inflammasome activators induce interleukin-1alpha secretion via distinct pathways with differential requirement for the protease function of caspase-1. Immunity 36, 388-400, doi: 10.1016/j.immuni.2012.01.018 (2012)). Human monocytes were isolated from PBMCs by positive selection with CD14-specific MicroBeads (Miltenyi Biotec). Cells were stimulated with or without 1 μg/mL ultrapure lipopolysaccharide (LPS)-EB (t1r1-3pelps, InvivoGen) for 24 h and nigericin (10 μg/mL, InvivoGen) or ATP (5 mM, Thermo Fisher Scientific) for the last 30 mins. In some experiments, CD14^+ magnetic activated cell sorting (MACS)-sorted monocytes were differentiated into macrophages for 7 days in the presence of GM-CSF (R&D Systems).
(§2) Intracellular cytokine and transcription factor staining was performed as described before (Noster, R. et al. IL-17 and GM-CSF expression are antagonistically regulated by human T helper cells. Sci Transl Med 6, 241ra280, doi: 10.1126/scitranslmed.3008706 (2014)). Cells were stained with the following antibodies: anti-IL-1a-PE (364-3B3-14), anti-IL-4-FITC (MP4-25D2 5), anti-IL-17A-Pacific Blue (BL168), anti-IFN-g-APC-Cy7 (4S.B3), anti-IL-10-PE-Cy7 (JES3-9D7), (all from Biolegend), anti-RORgt-APC (AFKJS-9, eBioscience), anti-Ki67-BV421 (Biolegend), and anti-IL-1R1-PE (FAB269P, R&D Systems). Then, they were analyzed with a BD LSRFortessa (BD Biosciences), a CytoFLEX Flow Cytometer (Beckman Coulter) or a MACSQuant analyzer (Miltenyi Biotec). Flow cytometry data were analyzed with FlowJo software (Tree Star) or with Cytobank (Cytobank Inc.). The concentrations of cytokines in cell culture supernatants were measured by ELISA (Duoset ELISA kits from R&D Systems, Human Caspase-1SimpleStep ELISA Kit (Abcam) or by Luminex (eBioscience) according to standard protocols as indicated in the corresponding figure legends. Counting beads (CountBright™ Absolute Counting Beads, Thermo Fisher Scientific) were used to normalize for cell numbers if analysis of cumulative supernatants obtained from 5-day cell cultures was performed.

human Th17 cells [2] = assay: Intracellular cytokine staining and flow cytometry of Th17 cells; assay type: cell-based
Method: as §1, with “In some experiments, CD14^+ magnetic activated cell sorting (MACS)-sorted monocytes were differentiated into macrophages for 7 days in the presence of GM-CSF (R&D Systems).” left out
as §2, with “Cells were stained with the following antibodies: anti-IL-1a-PE (364-3B3-14), anti-IL-4-FITC (MP4-25D2 5), anti-IL-17A-Pacific Blue (BL168), anti-IFN-g-APC-Cy7 (4S.B3), anti-IL-10-PE-Cy7 (JES3-9D7), (all from Biolegend), anti-RORgt-APC (AFKJS-9, eBioscience), anti-Ki67-BV421 (Biolegend), and anti-IL-1R1-PE (FAB269P, R&D Systems).” left out

human Th17 cells [3] = assay: Western blot / Jess Simple Western of Th17 cell lysates for caspase and GSDME cleavage; assay type: cell-based; details: for GSDME cleavage / caspase-3 cleavage: Th17 cells stimulated 5 days with anti-CD3 and anti-CD28 mAbs
Method: as §1
Cells were lysed in RIPA buffer (50 mM Tris, 150 mM NaCl, 1 mM EDTA, 0.1% NP-40, pH 7.5) containing protease inhibitor (Roche) and PhosphoSTOP Easypack (Roche). The protein concentrations of cell lysates were determined with a Pierce™ BCA Protein Assay Kit (Thermo Fisher Scientific™). Total protein ([…]) was boiled with 4× Laemmli sample buffer (Bio-Rad Laboratories) containing 355 mM 2-mercaptoethanol (Thermo Fisher Scientific) at 99° C. for 10 min. The supernatants and lysates were separated by SDS-polyacrylamide gel electrophoresis (PAGE) and transferred to a PVDF membrane (Bio-Rad Laboratories) by using a Mini-Protean system (Bio-Rad Laboratories) according to the manufacturer's protocol. The following primary antibodies were used for immunoblotting: mouse anti-human caspase-8 (Cell Signaling Technology), rabbit anti-human caspase-1 (Cell Signaling Technology), rabbit anti-human IL-1α (Abcam), mouse anti-human GAPDH (Merck millipore), mouse anti-human b-actin (Cell Signaling Technology), and rabbit anti-human gasdermin E (Abcam), rabbit anti-human caspase-3 (Cell Signaling Technology), mouse anti-human caspase-8 (Cell Signaling Technology), rabbit anti-human gasdermin D (Cell Signaling Technology), rabbit anti-human cleaved gasdermin D (Cell Signaling Technology), rabbit anti-NLRP3 (Cell Signaling Technology). HRP-conjugated anti-mouse and anti-rabbit IgG antibodies (Cell Signaling Technology) were used as secondary antibodies. Immunoreactive bands were detected by Pierce™ ECL Western Blotting Substrate or SuperSignal™ West Femto Maximum Sensitivity Substrate (both from Thermo Scientific™). Chemiluminescence signals were recorded with an Odyssey Imaging system (LI-COR Biosciences) and analyzed on Image Studio™ Lite (LI-COR Biosciences). Image contrast was enhanced in a linear fashion when necessary. Protein lysates were also prepared for automated Western blotting using a Jess System (ProteinSimple) according to the manufacturer's instructions. […]

human monocytes = assay: IL-1a secretion by LPS/nigericin stimulated monocytes (ELISA); assay type: cell-based; details: LPS 24 h, nigericin 30 min
Method: as §1, with “Human monocytes were isolated from PBMCs by positive selection with CD14-specific MicroBeads (Miltenyi Biotec). Cells were stimulated with or without 1 μg/mL ultrapure lipopolysaccharide (LPS)-EB (t1r1-3pelps, InvivoGen) for 24 h and nigericin (10 μg/mL, InvivoGen) or ATP (5 mM, Thermo Fisher Scientific) for the last 30 mins. In some experiments, CD14^+ magnetic activated cell sorting (MACS)-sorted monocytes were differentiated into macrophages for 7 days in the presence of GM-CSF (R&D Systems).” left out

[4] = test system: patients suffering from the rare autoinflammatory Schnitzler syndrome; assay: Treatment of Schnitzler syndrome patients with IL-1β-neutralizing antibody; IL-1α secretion of ex vivo Th17 cell clones (Luminex) and clinical symptoms; assay type: in vivo, human; details: treatment for 6 months; Th17 cell clones restimulated with CD3 and CD28 mAbs for 5 days
Method: Peripheral blood mononuclear cells (PBMCs) were isolated by density gradient centrifugation using Ficoll-Paque Plus (GE Healthcare). CD4^+ T cells were isolated from fresh PBMC by positive selection with CD4-specific MicroBeads (Miltenyi Biotec) using an autoMACS Pro Separator. […]
as §2, with “Cells were stained with the following antibodies: anti-IL-1a-PE (364-3B3-14), anti-IL-4-FITC (MP4-25D2 5), anti-IL-17A-Pacific Blue (BL168), anti-IFN-g-APC-Cy7 (4S.B3), anti-IL-10-PE-Cy7 (JES3-9D7), (all from Biolegend), anti-RORgt-APC (AFKJS-9, eBioscience), anti-Ki67-BV421 (Biolegend), and anti-IL-1R1-PE (FAB269P, R&D Systems).” left out, “performed. […]” for “performed.”

[5] = test system: patients suffering from the rare autoinflammatory Schnitzler syndrome; details: treatment for 6 months; cited from earlier work
[6] = Th17 cells, restimulation with PMA and ionomycin in presence or absence of BFA
[7] = anti-CD3 and anti-CD28 mAb 5 days, PMA and ionomycin restimulation

O=c1[nH]cc(F)c(=O)[nH]1 [5-FU]
cell viability (SGC-7901 and MKN-45; SGC-7901 and MKN-45 treated with 5-FU): significantly decreased
percentage of PI and APC Annexin-V double positive cells (SGC-7901 and MKN-45; after 5-FU treatment compared to control group): elevated
release of LDH (SGC-7901 and MKN-45): elevated

CC(=O)N[C@@H](Cc1ccc(O)cc1)C(=O)N[C@H](C(=O)N[C@@H](C)C(=O)N[C@@H](CC(=O)O)C(=O)CCl)C(C)C [Ac-YVAD-CMK]
IL-1α secretion by Th17 cells (human Th17 cells [1]): did not inhibit; also recorded: significantly elevated

C[C@H]1CCC/C=C/[C@@H]2C[C@H](O)C[C@H]2[C@H](O)/C=C/C(=O)O1 [BFA, brefeldin A]
secretion of IL17A into the extracellular space (human Th17 cells [1]; [6]): reduced
intracellular IL-1α expression (human Th17 cells [2]; [6]): not influenced

CC(C)(O)c1coc(S(=O)(=O)NC(=O)Nc2c3c(cc4c2CCC4)CCC3)c1 [MCC950]
GSDME cleavage (human Th17 cells [3]): significant reduction
caspase-3 cleavage (human Th17 cells [3]): significant reduction
caspase-8 cleavage (human Th17 cells [3]; Th17 cells stimulated, day 5): less pronounced
IL-1α secretion by Th17 cells (human Th17 cells [1]): significantly reduced; also recorded: significantly inhibited

COC(=O)CC[C@H](NC(=O)[C@H](CC(=O)OC)NC(=O)OCc1ccccc1)C(=O)N[C@H](C(=O)N[C@@H](CC(=O)OC)C(=O)CF)C(C)C [Z-DEVD-FMK]
GSDME cleavage (human Th17 cells [3]): reduced
IL-1α secretion by Th17 cells (human Th17 cells [1]): abrogating

CC[C@H](C)[C@H](NC(=O)OCc1ccccc1)C(=O)N[C@@H](CCC(=O)OC)C(=O)N[C@H](C(=O)N[C@@H](CC(=O)OC)C(=O)CF)[C@@H](C)O [Z-IETD-FMK] (Cbz-IE(OMe)TD(OMe)-CH2F)
GSDME cleavage (human Th17 cells [3]): reduced
caspase-3 cleavage (human Th17 cells [3]): abrogation
IL-1α secretion by Th17 cells (human Th17 cells [1]): abrogating

CSCC[C@@H](C=O)NC(=O)[C@H](CC(C)C)NC(=O)[C@H](CC(C)C)NC(C)=O [calpain inhibitor, N-Acetyl-L-leucyl-L-leucyl-L-methioninal] (Ac-Leu-Leu-Met-aldehyde)
LPS/nigericin-induced IL-1a secretion by monocytes (human monocytes): not dependent on calpain
IL-1α secretion by Th17 cells (human Th17 cells [1]): dose-dependent reduction

C/C=C(/C)C(=O)O[C@H]1C(C)=C2[C@H]([C@@H]1OC(=O)CCCCCCC)[C@@](C)(OC(C)=O)C[C@H](OC(=O)CCC)[C@@]1(O)[C@H]2OC(=O)[C@@]1(C)O [thapsigargin]
IL-1α secretion by Th17 cells (human Th17 cells [1]): increased

canakinumab: IL-1β-neutralizing antibody
IL-1α production by Th17 cells of Schnitzler syndrome patients [4]: significant reduction
clinical symptoms [5]: complete resolution

gevokizumab: IL-1β-neutralizing antibody
IL-1α production by Th17 cells of Schnitzler syndrome patients [4]: significant reduction
clinical symptoms [5]: complete resolution

B1: recombinant IL-1α: recombinant IL-1α applied exogenously to Th17 cells (protein, UniProt P01583 113-271, looked up)
Interleukin-1 alpha: SAPFSFLSNVKYNFMRIIKYEFILNDALNQSIIRANDQYLTAAALHNLDEAVKFDMGAYKSSKDDAKITVILRISKTQLYVTAQDEDQPVLLKEMPEIPKTITGSETNLLFFWETHGTKNYFTSVAHPNLFIATKQDYWVCLAGGPPSITDFQILENQA
IFN-γ expression by Th17 cells (human Th17 cells [2]; [7]): upregulation
IL-10 expression by Th17 cells (human Th17 cells [2]; [7]): reduced
IL-17A expression by Th17 cells (human Th17 cells [2]; [7]): upregulation
